Laboratory results taken from patent US20240002425A1, “NOVEL AMINOALKYL GLUCOSAMINIDE 4-PHOSPHATE DERIVATIVE” (DAIICHI SANKYO COMPANY, LIMITED, priority 2020, published 2024).
Where two headings read alike, the source gives them in different places.

Molecular target: human TLR4 (Homo sapiens, UniProt O00206+Q9Y6Y9)
Test: Human TLR4 activating effect (HEK-Blue Human TLR4 Cells, SEAP reporter)
Assay type: cell-based
Settings: 24 hours, SEAP Protein concentration
Protocol: The human TLR4 activating effect was studied using the compounds described in Examples 1 to 17 and monophosphoryl lipid A as Comparative Example A.
Triethanolamine was dissolved at 0.5% (v/v) in injectable distilled water to prepare an aqueous triethanolamine solution. 1 mg of each test drug was dissolved in 0.98 mL of the aqueous triethanolamine solution, and pH of the solution was then adjusted to 7.2 to 7.4 by the addition of 20 μL of 1 M HCl to prepare a 1 mg/mL solution. A dilution series of the test drug was prepared using a medium [DMEM (Nacalai Tesque, Inc.), 10% FBS (Sigma-Aldrich Co. LLC), 50 U/mL penicillin-50 μg/mL streptomycin (Thermo Fisher Scientific Inc.), 1×HEK-Blue Selection (InvivoGen), and 100 μg/mL Normocin (InvivoGen)]. 2×10^5 cells/mL HEK-Blue™ Human TLR4 Cells (InvivoGen) were inoculated to each well of a 96-well microplate for tissue culture (Iwaki), then treated with the test drug, and cultured at 37° C. for 24 hours under 5% CO2. The cells thus cultured were centrifuged at 400×g at 4° C. for 3 minutes. Recombinant SEAP Protein (InvivoGen) was used for a calibration curve. After addition of 180 μL of QUANTI-Blue (InvivoGen) to each well of 96 Well TC-Treated Microplates (Corning, Inc.), 20 μL each of the cell culture supernatant and a standard diluting solution was added to each well, and the plate was left standing at 37° C. for 4 hours. After reaction, absorbance (wavelength: 655 nm) was measured using a microplate reader (PerkinElmer, Inc., EnSpire), and a SEAP Protein concentration was calculated from the calibration curve and used as an index for TLR4 agonist activity. A drug concentration that induced reaction corresponding to 50% of the maximum reaction was calculated as EC50 (ng/mL) from a linear expression using two drug concentrations between which the drug concentration that induced reaction corresponding to 50% of the maximum reaction in each experiment was positioned, and measured values thereof.

[1] = read-out: EC50 (ng/ml) (converted)

Sequence of human TLR4 (O00206 24-839): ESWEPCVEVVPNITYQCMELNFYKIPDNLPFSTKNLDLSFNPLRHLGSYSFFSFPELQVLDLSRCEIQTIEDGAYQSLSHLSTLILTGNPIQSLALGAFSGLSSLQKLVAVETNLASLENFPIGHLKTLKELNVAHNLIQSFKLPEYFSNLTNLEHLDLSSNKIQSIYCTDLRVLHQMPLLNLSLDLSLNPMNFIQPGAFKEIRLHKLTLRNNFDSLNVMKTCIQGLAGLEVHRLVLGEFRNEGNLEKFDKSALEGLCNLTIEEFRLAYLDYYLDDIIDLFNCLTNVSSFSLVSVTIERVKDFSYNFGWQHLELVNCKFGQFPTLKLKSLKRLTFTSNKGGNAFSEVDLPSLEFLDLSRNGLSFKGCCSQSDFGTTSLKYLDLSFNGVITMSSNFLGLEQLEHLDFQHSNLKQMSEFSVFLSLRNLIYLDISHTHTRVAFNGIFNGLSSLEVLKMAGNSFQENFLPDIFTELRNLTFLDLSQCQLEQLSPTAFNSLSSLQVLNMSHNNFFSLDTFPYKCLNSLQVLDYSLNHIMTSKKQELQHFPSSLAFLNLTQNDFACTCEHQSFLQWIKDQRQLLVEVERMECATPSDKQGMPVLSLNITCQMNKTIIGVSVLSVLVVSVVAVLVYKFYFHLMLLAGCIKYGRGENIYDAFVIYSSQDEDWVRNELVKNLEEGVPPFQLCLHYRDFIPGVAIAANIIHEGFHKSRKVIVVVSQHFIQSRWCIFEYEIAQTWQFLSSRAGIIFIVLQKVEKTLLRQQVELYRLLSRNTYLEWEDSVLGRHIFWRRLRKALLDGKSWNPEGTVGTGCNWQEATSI
Sequence of human TLR4 (Q9Y6Y9 17-160 limits assumed): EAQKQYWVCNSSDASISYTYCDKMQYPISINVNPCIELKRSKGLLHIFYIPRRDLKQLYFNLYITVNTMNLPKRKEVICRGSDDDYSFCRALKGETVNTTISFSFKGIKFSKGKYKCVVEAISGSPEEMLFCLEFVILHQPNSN

CCCCCCCCCCC[C@H](CC(=O)N[C@H]1[C@H](OC[C@H](NC(=O)C[C@@H](CCCCCCCCCCC)OC(=O)CCCCCCCCC)C(=O)O)O[C@H](CO[C@@H]2O[C@H](CO)[C@@H](O)[C@H](O)[C@H]2NC(C)=O)[C@@H](OP(=O)(O)O)[C@@H]1OC(=O)C[C@@H](CCCCCCCCCCC)OC(=O)CCCCCCCCC)OC(=O)CCCCCCCCC [Example 7(7c), Ammonium (2S)-3-{[6-O-(2-acetamido-2-deoxy-β-D-glucopyranosyl)-3-O-[(3R)-3-(decanoyloxy)tetradecanoyl]-2-{[(3R)-3-(decanoyloxy)tetradecanoyl]amino}-2-deoxy-4-O-phosphono-β-D-glucopyranosyl]oxy}-2-{[(3R)-3-(decanoyloxy)tetradecanoyl]amino}propanoate]
EC50 [1]: 0.396 nM

CCCCCCCCCCC[C@H](CC(=O)N[C@H]1[C@H](OC[C@H](NC(=O)C[C@@H](CCCCCCCCCCC)OC(=O)CCCCCCCCC)C(=O)O)O[C@H](CO[C@@H]2O[C@H](CO)[C@@H](OP(=O)(O)O)[C@H](O)[C@H]2NC(C)=O)[C@@H](OP(=O)(O)O)[C@@H]1OC(=O)C[C@@H](CCCCCCCCCCC)OC(=O)CCCCCCCCC)OC(=O)CCCCCCCCC [Example 8(8f), Ammonium (2S)-3-({6-O-[2-acetamido-2-deoxy-4-O-(hydroxyphosphinato)-β-D-glucopyranosyl]-3-O-[(3R)-3-(decanoyloxy)tetradecanoyl]-2-{[(3R)-3-(decanoyloxy)tetradecanoyl]amino}-2-deoxy-4-O-phosphono-β-D-glucopyranosyl}oxy)-2-{[(3R)-3-(decanoyloxy)tetradecanoyl]amino}propanoate]
EC50 [1]: 0.35 nM

CCCCCCCCCCC[C@H](CC(=O)N[C@H]1[C@H](OC[C@H](NC(=O)C[C@@H](CCCCCCCCCCC)OC(=O)CCCCCCCCC)C(=O)O)O[C@H](CO[C@@H]2O[C@H](COP(=O)(O)O)[C@@H](O)[C@H](O)[C@H]2NC(C)=O)[C@@H](OP(=O)(O)O)[C@@H]1OC(=O)C[C@@H](CCCCCCCCCCC)OC(=O)CCCCCCCCC)OC(=O)CCCCCCCCC [Example 9(9e), Ammonium (2S)-3-({6-O-[2-acetamido-2-deoxy-6-O-(hydroxyphosphinato)-β-D-glucopyranosyl]-3-O-[(3R)-3-(decanoyloxy)tetradecanoyl]-2-{[(3R)-3-(decanoyloxy)tetradecanoyl]amino}-2-deoxy-4-O-phosphono-β-D-glucopyranosyl}oxy)-2-{[(3R)-3-(decanoyloxy)tetradecanoyl]amino}propanoate]
EC50 [1]: 0.288 nM

CCCCCCCCCCC[C@H](CC(=O)NC1C(CC[C@@H](CC(=O)O)NC(=O)C[C@@H](CCCCCCCCCCC)OC(=O)CCCCCCCCC)OC(CO)C(OP(=O)(O)O)C1OC(=O)C[C@@H](CCCCCCCCCCC)OC(=O)CCCCCCCCC)OC(=O)CCCCCCCCC (stereo partly drawn) [Example 10(10r), Ammonium 6,10-anhydro-8-O-[(3R)-3-(decanoyloxy)tetradecanoyl]-3,7-bis{[(3R)-3-(decanoyloxy)tetradecanoyl]amino}-2,3,4,5,7-pentadeoxy-9-O-phosphono-D-erythro-L-galacto-undecanoate]
EC50 [1]: 0.667 nM

CCCCCCCCCCC[C@H](CC(=O)NC1C(CC[C@@H](CC(=O)O)NC(=O)C[C@@H](CCCCCCCCCCC)OC(=O)CCCCCCCCC)OC(COC2(C(=O)O)CC(O)C(O)C([C@H](O)CO)O2)C(OP(=O)(O)O)C1OC(=O)C[C@@H](CCCCCCCCCCC)OC(=O)CCCCCCCCC)OC(=O)CCCCCCCCC (stereo partly drawn) [Example 11(11d), Ammonium 6,10-anhydro-8-O-[(3R)-3-(decanoyloxy)tetradecanoyl]-3,7-bis{[(3R)-3-(decanoyloxy)tetradecanoyl]amino}-2,3,4,5,7-pentadeoxy-11-O-(3-deoxy-α-D-manno-oct-2-ulopyranonosyl)-9-O-phosphono-D-erythro-L-galacto-undecanoate]
EC50 [1]: 0.291 nM

CCCCCCCCCCC[C@H](CC(=O)NC1C(CC[C@@H](CC(=O)O)NC(=O)C[C@@H](CCCCCCCCCCC)OC(=O)CCCCCCCCC)OC(COC2(C(=O)O)CC(OC3(C(=O)O)CC(O)C(O)C([C@H](O)CO)O3)C(O)C([C@H](O)CO)O2)C(OP(=O)(O)O)C1OC(=O)C[C@@H](CCCCCCCCCCC)OC(=O)CCCCCCCCC)OC(=O)CCCCCCCCC (stereo partly drawn) [Example 12(12d), Ammonium 3-deoxy-α-D-manno-oct-2-ulopyranonosyl-(2-+4)-3-deoxy-α-D-manno-oct-2-ulopyranonosyl-(2-+11)-6,10-anhydro-8-O-[(3R)-3-(decanoyloxy)tetradecanoyl]-3,7-bis{[(3R)-3-(decanoyloxy)tetradecanoyl]amino}-2,3,4,5,7-pentadeoxy-9-O-phosphono-D-erythro-L-galacto-undecanoate]
EC50 [1]: 0.67 nM

CCCCCCCCCCC[C@H](CC(=O)NC1C(CC[C@H](NC(=O)C[C@@H](CCCCCCCCCCC)OC(=O)CCCCCCCCC)C(=O)O)OC(CO)C(OP(=O)(O)O)C1OC(=O)C[C@@H](CCCCCCCCCCC)OC(=O)CCCCCCCCC)OC(=O)CCCCCCCCC (stereo partly drawn) [Example 13(130), Ammonium 5,9-anhydro-7-O-[(3R)-3-(decanoyloxy)tetradecanoyl]-2,6-bis{[(3R)-3-(decanoyloxy)tetradecanoyl]amino}-2,3,4,6-tetradeoxy-8-O-phosphono-D-erythro-L-galacto-decanoate]
EC50 [1]: 1.61 nM

CCCCCCCCCCC[C@H](CC(=O)NC1C(CC[C@H](NC(=O)C[C@@H](CCCCCCCCCCC)OC(=O)CCCCCCCCC)C(=O)O)OC(COC2(C(=O)O)CC(O)C(O)C([C@H](O)CO)O2)C(OP(=O)(O)O)C1OC(=O)C[C@@H](CCCCCCCCCCC)OC(=O)CCCCCCCCC)OC(=O)CCCCCCCCC (stereo partly drawn) [Example 14(14d), Ammonium 5,9-anhydro-7-O-[(3R)-3-(decanoyloxy)tetradecanoyl]-2,6-bis{[(3R)-3-(decanoyloxy)tetradecanoyl]amino}-2,3,4,6-tetradeoxy-10-O-(3-deoxy-α-D-manno-oct-2-ulopyranonosyl)-8-O-phosphono-D-erythro-L-galacto-decanoate]
EC50 [1]: 0.188 nM

CCCCCCCCCCC[C@H](CC(=O)NC1C(CC[C@H](NC(=O)C[C@@H](CCCCCCCCCCC)OC(=O)CCCCCCCCC)C(=O)O)OC(COC2(C(=O)O)CC(OC3(C(=O)O)CC(O)C(O)C([C@H](O)CO)O3)C(O)C([C@H](O)CO)O2)C(OP(=O)(O)O)C1OC(=O)C[C@@H](CCCCCCCCCCC)OC(=O)CCCCCCCCC)OC(=O)CCCCCCCCC (stereo partly drawn) [Example 15(15d), Ammonium 3-deoxy-α-D-manno-oct-2-ulopyranonosyl-(2-+4)-3-deoxy-α-D-manno-oct-2-ulopyranonosyl-(2-+10)-5,9-anhydro-7-O-[(3R)-3-(decanoyloxy)tetradecanoyl]-2,6-bis{[(3R)-3-(decanoyloxy)tetradecanoyl]amino}-2,3,4,6-tetradeoxy-8-O-phosphono-D-erythro-L-galacto-decanoate]
EC50 [1]: 0.4 nM

CCCCCCCCCCC[C@H](CC(=O)NC1C(CC[C@H](NC(=O)C[C@@H](CCCCCCCCCCC)OC(=O)CCCCCCCCC)C(=O)O)OC(CF)C(OP(=O)(O)O)C1OC(=O)C[C@@H](CCCCCCCCCCC)OC(=O)CCCCCCCCC)OC(=O)CCCCCCCCC (stereo partly drawn) [Example 16(16b), Ammonium 5,9-anhydro-7-O-[(3R)-3-(decanoyloxy)tetradecanoyl]-2,6-bis{[(3R)-3-(decanoyloxy)tetradecanoyl]amino}-2,3,4,6,10-pentadeoxy-10-fluoro-8-O-phosphono-D-erythro-L-galacto-decanoate]
EC50 [1]: 1.01 nM

CCCCCCCCCCC[C@H](CC(=O)NC1C(CC[C@H](NC(=O)C[C@@H](CCCCCCCCCCC)OCCCCCCCCCC)C(=O)O)OC(CO)C(OP(=O)(O)O)C1OC(=O)C[C@@H](CCCCCCCCCCC)OCCCCCCCCCC)OCCCCCCCCCC (stereo partly drawn) [Example 17(17h), Ammonium 5,9-anhydro-7-O-[(3R)-3-(decyloxy)tetradecanoyl]-2,6-bis{[(3R)-3-(decyloxy)tetradecanoyl]amino}-2,3,4,6-tetradeoxy-8-O-phosphono-D-erythro-L-galacto-decanoate]
EC50 [1]: 0.969 nM

monophosphoryl lipid A [Comparative Example A, reference compound]
EC50: >0.01 µg/mL
